Data published in the kinase profiling compilation of Christmann-Franck et al. (2016).

Experiments:
Assay in all cases: KINOMEscan competition binding
Conditions in all cases: compound 10.0 µM
[1] = target: STK39 (human) (UniProt Q9UEW8)
[2] = target: SIK2 (human) (UniProt Q9H0K1)
[3] = target: MAP3K9 (human) (UniProt P80192)
[4] = target: ROCK1 (human) (UniProt Q13464)
[5] = target: NEK5 (human) (UniProt Q6P3R8)
[6] = target: MAPKAPK5 (human) (UniProt Q8IW41)
[7] = target: NEK11 (human) (UniProt Q8NG66)
[8] = target: CHEK1 (human) (UniProt O14757)
[9] = target: CDK11B (human) (UniProt P21127)
[10] = target: EIF2AK1 (human) (UniProt Q9BQI3)
[11] = target: RET (human) (UniProt P07949)
[12] = target: CDK17 (human) (UniProt Q00537)
[13] = target: FLT4 (human) (UniProt P35916)
[14] = target: MAPK14 (human) (UniProt Q16539)
[15] = system: PIK3CA (human), P42336 [M1043I]
[16] = target: CDK5 (human) (UniProt Q00535)
[17] = target: AKT2 (human) (UniProt P31751)
[18] = target: TEC (human) (UniProt P42680)
[19] = target: CAMK2B (human) (UniProt Q13554)
[20] = target: NEK3 (human) (UniProt P51956)
[21] = target: PAK2 (human) (UniProt Q13177)
[22] = target: ADCK3 (human) (UniProt Q8NI60)
[23] = target: MAP3K7 (human) (UniProt O43318)
[24] = target: ACVR1 (human) (UniProt Q04771)
[25] = target: PRKD3 (human) (UniProt O94806)
[26] = target: CAMK1G (human) (UniProt Q96NX5)
[27] = target: EPHB2 (human) (UniProt P29323)
[28] = target: CDK4 CCND3 (human) (UniProt P11802+P30281)
[29] = target: PRKCE (human) (UniProt Q02156)
[30] = system: KIT (human), P10721 [A829P]
[31] = target: MATK (human) (UniProt P42679)
[32] = target: LATS1 (human) (UniProt O95835)
[33] = target: LIMK2 (human) (UniProt P53671)
[34] = target: INSR (human) (UniProt P06213)
[35] = target: SIK3 (human) (UniProt Q9Y2K2)
[36] = target: HIPK2 (human) (UniProt Q9H2X6)
[37] = target: PIP5K1A (human) (UniProt Q99755)
[38] = target: SGK3 (human) (UniProt Q96BR1)
[39] = target: RPS6KA3 KD1 (human) (UniProt P51812)

MAP3K7 (human), sequence (O43318 whole entry, looked up): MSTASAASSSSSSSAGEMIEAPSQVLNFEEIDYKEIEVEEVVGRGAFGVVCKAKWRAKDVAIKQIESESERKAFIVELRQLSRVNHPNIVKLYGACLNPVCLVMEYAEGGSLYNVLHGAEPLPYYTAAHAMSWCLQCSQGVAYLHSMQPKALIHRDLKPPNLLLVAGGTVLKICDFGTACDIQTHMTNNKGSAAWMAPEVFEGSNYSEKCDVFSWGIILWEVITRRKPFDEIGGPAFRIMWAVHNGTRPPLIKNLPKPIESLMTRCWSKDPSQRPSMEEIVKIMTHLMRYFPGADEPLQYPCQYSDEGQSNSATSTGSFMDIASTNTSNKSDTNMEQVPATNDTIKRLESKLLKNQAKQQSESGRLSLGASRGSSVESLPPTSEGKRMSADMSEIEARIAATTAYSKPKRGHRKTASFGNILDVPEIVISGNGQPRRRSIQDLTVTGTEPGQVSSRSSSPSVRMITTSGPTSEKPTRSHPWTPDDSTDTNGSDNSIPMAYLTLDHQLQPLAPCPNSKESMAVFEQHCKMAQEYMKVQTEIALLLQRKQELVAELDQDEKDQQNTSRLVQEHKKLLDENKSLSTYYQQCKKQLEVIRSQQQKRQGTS
NEK5 (human), sequence (Q6P3R8 whole entry, looked up): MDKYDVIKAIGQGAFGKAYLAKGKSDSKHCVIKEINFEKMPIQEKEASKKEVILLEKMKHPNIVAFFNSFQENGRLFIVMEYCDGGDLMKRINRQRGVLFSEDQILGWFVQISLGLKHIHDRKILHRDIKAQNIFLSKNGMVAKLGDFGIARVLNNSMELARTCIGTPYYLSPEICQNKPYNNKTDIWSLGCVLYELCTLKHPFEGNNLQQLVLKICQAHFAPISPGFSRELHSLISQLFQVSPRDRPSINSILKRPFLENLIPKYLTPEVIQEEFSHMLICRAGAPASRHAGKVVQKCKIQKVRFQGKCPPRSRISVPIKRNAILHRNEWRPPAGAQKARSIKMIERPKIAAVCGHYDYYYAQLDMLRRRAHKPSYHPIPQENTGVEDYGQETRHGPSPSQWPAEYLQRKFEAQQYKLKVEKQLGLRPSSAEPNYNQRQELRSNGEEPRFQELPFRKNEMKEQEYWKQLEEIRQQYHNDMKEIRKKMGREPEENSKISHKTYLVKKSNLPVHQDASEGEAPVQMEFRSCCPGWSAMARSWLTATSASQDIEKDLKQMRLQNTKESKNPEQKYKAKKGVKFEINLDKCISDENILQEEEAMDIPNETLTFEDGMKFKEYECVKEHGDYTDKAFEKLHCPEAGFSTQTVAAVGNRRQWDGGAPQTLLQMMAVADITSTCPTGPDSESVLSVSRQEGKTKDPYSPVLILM
SIK3 (human), sequence (Q9Y2K2 whole entry, looked up): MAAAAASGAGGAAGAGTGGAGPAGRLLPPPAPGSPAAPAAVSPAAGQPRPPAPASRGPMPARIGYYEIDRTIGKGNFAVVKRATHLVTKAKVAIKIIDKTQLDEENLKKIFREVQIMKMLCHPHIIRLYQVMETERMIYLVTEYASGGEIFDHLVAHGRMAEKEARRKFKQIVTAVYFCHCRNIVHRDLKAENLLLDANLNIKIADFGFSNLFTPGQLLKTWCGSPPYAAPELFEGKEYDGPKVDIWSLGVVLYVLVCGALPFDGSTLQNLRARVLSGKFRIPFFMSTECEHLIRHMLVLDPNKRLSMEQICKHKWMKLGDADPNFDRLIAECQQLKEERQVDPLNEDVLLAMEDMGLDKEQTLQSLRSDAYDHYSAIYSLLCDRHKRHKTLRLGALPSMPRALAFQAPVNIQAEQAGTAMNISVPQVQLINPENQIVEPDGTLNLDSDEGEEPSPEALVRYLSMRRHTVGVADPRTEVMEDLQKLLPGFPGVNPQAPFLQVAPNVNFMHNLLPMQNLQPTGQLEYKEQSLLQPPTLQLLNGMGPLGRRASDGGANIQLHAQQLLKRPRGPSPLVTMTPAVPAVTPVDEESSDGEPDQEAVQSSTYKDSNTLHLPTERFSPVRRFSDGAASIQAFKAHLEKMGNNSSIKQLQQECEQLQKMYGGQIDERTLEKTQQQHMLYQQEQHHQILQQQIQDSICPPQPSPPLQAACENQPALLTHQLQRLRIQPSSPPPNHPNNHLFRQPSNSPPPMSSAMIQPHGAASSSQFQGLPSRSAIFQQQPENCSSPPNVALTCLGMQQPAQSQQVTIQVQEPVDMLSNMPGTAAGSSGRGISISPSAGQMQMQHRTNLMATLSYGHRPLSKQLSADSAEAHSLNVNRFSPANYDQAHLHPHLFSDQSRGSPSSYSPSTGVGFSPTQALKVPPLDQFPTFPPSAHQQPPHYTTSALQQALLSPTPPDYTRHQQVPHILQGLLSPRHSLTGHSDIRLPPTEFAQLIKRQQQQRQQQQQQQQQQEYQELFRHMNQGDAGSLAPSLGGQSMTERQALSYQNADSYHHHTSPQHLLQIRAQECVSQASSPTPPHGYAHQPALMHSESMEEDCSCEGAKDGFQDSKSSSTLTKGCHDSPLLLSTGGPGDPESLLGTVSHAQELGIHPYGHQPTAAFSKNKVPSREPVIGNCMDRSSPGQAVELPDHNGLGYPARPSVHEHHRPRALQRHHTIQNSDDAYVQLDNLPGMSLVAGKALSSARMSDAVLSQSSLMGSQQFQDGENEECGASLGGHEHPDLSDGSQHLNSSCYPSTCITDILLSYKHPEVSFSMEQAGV
PRKD3 (human), sequence (O94806 whole entry, looked up): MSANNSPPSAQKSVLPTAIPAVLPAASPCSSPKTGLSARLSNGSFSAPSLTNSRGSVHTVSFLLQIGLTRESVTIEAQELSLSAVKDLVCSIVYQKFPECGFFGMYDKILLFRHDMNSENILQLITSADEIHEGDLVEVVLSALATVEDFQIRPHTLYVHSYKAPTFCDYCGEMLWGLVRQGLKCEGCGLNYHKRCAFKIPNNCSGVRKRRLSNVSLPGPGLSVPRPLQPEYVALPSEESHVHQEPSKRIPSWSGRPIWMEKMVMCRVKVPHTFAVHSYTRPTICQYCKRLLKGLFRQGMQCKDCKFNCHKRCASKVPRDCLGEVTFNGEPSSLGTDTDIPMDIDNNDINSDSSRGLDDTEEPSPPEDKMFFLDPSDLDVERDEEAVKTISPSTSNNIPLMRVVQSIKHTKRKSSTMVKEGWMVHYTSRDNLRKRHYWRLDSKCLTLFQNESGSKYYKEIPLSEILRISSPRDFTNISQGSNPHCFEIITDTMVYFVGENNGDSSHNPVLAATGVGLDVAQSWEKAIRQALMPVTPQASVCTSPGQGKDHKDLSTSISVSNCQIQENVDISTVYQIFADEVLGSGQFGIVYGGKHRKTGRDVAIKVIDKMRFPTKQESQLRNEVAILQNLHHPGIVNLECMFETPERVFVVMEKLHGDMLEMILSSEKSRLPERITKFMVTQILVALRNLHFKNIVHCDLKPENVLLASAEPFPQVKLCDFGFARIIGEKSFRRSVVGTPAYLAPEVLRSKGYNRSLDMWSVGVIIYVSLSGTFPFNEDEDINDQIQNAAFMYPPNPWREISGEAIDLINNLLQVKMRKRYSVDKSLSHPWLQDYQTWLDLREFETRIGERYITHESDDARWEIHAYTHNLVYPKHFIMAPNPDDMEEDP
PAK2 (human), sequence (Q13177 whole entry, looked up): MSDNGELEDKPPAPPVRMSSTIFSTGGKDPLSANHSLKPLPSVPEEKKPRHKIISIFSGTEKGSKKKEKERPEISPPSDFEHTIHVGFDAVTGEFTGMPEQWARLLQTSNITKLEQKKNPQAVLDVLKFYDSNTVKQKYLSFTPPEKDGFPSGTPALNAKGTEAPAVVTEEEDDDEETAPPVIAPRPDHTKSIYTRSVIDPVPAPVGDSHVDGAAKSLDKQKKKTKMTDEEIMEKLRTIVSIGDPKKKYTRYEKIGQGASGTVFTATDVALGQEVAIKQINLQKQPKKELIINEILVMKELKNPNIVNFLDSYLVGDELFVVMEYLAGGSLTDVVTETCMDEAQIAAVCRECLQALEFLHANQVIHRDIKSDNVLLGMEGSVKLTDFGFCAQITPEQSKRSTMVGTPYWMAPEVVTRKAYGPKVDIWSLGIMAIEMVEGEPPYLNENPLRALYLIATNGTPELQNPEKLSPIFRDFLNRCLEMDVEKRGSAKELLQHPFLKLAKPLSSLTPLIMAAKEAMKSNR
PRKCE (human), sequence (Q02156 whole entry, looked up): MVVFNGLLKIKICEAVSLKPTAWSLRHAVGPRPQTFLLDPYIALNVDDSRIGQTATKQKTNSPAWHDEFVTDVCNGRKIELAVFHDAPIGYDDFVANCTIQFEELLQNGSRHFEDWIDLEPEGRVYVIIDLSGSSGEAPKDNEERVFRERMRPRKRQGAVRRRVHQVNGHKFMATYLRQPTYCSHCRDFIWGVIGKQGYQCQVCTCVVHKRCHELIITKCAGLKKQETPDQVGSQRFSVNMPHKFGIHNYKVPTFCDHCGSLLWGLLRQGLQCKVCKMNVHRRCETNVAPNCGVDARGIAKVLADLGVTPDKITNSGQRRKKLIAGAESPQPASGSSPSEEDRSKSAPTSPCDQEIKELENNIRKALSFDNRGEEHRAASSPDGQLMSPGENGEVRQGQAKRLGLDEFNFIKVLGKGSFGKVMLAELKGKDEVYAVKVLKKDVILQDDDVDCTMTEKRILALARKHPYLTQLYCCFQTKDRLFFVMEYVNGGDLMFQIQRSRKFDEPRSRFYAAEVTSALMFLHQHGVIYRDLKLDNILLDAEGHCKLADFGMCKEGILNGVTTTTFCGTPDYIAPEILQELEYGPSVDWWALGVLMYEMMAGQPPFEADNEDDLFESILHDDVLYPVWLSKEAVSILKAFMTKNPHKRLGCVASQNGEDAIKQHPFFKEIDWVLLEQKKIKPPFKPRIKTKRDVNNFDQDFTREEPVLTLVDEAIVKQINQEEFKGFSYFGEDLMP
CDK5 (human), sequence (Q00535 whole entry, looked up): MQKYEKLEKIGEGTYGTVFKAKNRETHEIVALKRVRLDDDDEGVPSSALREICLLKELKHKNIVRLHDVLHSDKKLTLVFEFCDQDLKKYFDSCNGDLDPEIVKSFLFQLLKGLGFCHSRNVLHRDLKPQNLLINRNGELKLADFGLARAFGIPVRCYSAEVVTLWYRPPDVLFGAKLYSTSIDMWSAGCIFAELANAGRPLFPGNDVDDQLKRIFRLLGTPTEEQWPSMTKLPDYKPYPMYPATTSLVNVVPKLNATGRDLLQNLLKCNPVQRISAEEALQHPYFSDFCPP

SMILES | kinase still bound, per cent of control [1] | kinase still bound, per cent of control [2] | kinase still bound, per cent of control [3] | kinase still bound, per cent of control [4] | kinase still bound, per cent of control [5] | kinase still bound, per cent of control [7] | kinase still bound, per cent of control [8] | kinase still bound, per cent of control [9] | kinase still bound, per cent of control [10] | kinase still bound, per cent of control [11] | kinase still bound, per cent of control [12] | kinase still bound, per cent of control [15] | kinase still bound, per cent of control [16] | kinase still bound, per cent of control [18] | kinase still bound, per cent of control [20] | kinase still bound, per cent of control [21] | kinase still bound, per cent of control [22] | kinase still bound, per cent of control [23] | kinase still bound, per cent of control [24] | kinase still bound, per cent of control [25] | also measured
N#C/C(=C1/Nc2ccccc2S1)c1ccnc(NCCc2cccnc2)n1 | 100% | 82% | 74% | 37% | 100% | 100% | 100% | 96% | 100% | 100% | 98% | 84% | 100% | 92% | 58% | 34% | 91% | 22% | 86% | 84% | kinase still bound, per cent of control [6]: 100%; kinase still bound, per cent of control [13]: 100%; kinase still bound, per cent of control [14]: 57%; kinase still bound, per cent of control [17]: 89%; kinase still bound, per cent of control [19]: 49%; kinase still bound, per cent of control [26]: 61%; kinase still bound, per cent of control [27]: 100%; kinase still bound, per cent of control [28]: 49%; kinase still bound, per cent of control [29]: 92%; kinase still bound, per cent of control [30]: 73%; kinase still bound, per cent of control [31]: 100%; kinase still bound, per cent of control [32]: 100%; kinase still bound, per cent of control [33]: 96%; kinase still bound, per cent of control [34]: 92%; kinase still bound, per cent of control [35]: 100%; kinase still bound, per cent of control [36]: 1.4%; kinase still bound, per cent of control [37]: 18%; kinase still bound, per cent of control [38]: 100%
CC(=O)c1c(C)c2cnc(Nc3ccc(N4CCNCC4)cn3)nc2n(C2CCCC2)c1=O | 6.8% | 63% | 78% | 30% | 27% | 31% | 20% | 93% | 32% | 71% | 2.7% | 68% | 48% | 98% | 100% | 93% | 63% | 7.9% | 80% | 0.75% | kinase still bound, per cent of control [19]: 4.4%; kinase still bound, per cent of control [26]: 20%; kinase still bound, per cent of control [28]: 2%; kinase still bound, per cent of control [29]: 67%; kinase still bound, per cent of control [30]: 32%; kinase still bound, per cent of control [31]: 46%; kinase still bound, per cent of control [33]: 90%; kinase still bound, per cent of control [34]: 67%; kinase still bound, per cent of control [35]: 100%; kinase still bound, per cent of control [36]: 0.25%; kinase still bound, per cent of control [37]: 32%; kinase still bound, per cent of control [38]: 53%; kinase still bound, per cent of control [39]: 28%
CCc1nc(-c2cccc(C)c2)c(-c2ccnc(NC(=O)c3ccccc3)c2)s1 | 100% | 62% | 94% | 97% | 100% | 100% | 77% | 88% | 100% | 66% | 99% | 95% | 100% | 100% | 100% | 85% | 0.2% | 64% | 9.6% | 26% | kinase still bound, per cent of control [6]: 100%; kinase still bound, per cent of control [13]: 27%; kinase still bound, per cent of control [17]: 80%; kinase still bound, per cent of control [26]: 97%; kinase still bound, per cent of control [27]: 80%; kinase still bound, per cent of control [28]: 92%; kinase still bound, per cent of control [29]: 87%; kinase still bound, per cent of control [30]: 100%; kinase still bound, per cent of control [31]: 100%; kinase still bound, per cent of control [32]: 100%; kinase still bound, per cent of control [33]: 94%; kinase still bound, per cent of control [35]: 94%; kinase still bound, per cent of control [36]: 100%; kinase still bound, per cent of control [37]: 100%; kinase still bound, per cent of control [38]: 100%; kinase still bound, per cent of control [39]: 93%
